For experiment [1], the system named is A2780 ovarian cells. The experiment can be described thus: A2780 ovarian cell proliferation assay in lipid reduced medium, without palmitate (MTT). The format is cell-based. Conditions: Homo sapiens, A2780, 96 h; read-out: pIC50 A2780 Ovarian Cell, Without Palmitate (converted).
For experiment [2], the system named is A2780 ovarian cells. As to the kind of experiment: A2780 ovarian cell proliferation assay in lipid reduced medium, with palmitate (MTT). Conditions: Homo sapiens, A2780, 96 h; read-out: pIC50 A2780 Ovarian Cell, With Palmitate (converted). The format is cell-based. An outline of the steps:
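In this palmitate-supplemented format, compound dilutions (30 μM down to 0.01 μM) are added to cells in lipid-reduced serum with 25 μM palmitate, 0.2% fatty-acid-free BSA and 0.25% ethanol. After four days (96 h) MTT absorbance at 544 nm is recorded and fitted by minimum sum of squares.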

The target of experiment [3] is Fatty Acid Synthase Keto-reductase Domain (FASN KR) (Homo sapiens, UniProt P49327). As to the kind of experiment: Fatty Acid Synthase keto-reductase domain (FASN KR) inhibition, NADPH oxidation at 340 nm.
Chain of Fatty Acid Synthase Keto-reductase Domain (FASN KR) (P49327 whole entry, the tested form may be a part): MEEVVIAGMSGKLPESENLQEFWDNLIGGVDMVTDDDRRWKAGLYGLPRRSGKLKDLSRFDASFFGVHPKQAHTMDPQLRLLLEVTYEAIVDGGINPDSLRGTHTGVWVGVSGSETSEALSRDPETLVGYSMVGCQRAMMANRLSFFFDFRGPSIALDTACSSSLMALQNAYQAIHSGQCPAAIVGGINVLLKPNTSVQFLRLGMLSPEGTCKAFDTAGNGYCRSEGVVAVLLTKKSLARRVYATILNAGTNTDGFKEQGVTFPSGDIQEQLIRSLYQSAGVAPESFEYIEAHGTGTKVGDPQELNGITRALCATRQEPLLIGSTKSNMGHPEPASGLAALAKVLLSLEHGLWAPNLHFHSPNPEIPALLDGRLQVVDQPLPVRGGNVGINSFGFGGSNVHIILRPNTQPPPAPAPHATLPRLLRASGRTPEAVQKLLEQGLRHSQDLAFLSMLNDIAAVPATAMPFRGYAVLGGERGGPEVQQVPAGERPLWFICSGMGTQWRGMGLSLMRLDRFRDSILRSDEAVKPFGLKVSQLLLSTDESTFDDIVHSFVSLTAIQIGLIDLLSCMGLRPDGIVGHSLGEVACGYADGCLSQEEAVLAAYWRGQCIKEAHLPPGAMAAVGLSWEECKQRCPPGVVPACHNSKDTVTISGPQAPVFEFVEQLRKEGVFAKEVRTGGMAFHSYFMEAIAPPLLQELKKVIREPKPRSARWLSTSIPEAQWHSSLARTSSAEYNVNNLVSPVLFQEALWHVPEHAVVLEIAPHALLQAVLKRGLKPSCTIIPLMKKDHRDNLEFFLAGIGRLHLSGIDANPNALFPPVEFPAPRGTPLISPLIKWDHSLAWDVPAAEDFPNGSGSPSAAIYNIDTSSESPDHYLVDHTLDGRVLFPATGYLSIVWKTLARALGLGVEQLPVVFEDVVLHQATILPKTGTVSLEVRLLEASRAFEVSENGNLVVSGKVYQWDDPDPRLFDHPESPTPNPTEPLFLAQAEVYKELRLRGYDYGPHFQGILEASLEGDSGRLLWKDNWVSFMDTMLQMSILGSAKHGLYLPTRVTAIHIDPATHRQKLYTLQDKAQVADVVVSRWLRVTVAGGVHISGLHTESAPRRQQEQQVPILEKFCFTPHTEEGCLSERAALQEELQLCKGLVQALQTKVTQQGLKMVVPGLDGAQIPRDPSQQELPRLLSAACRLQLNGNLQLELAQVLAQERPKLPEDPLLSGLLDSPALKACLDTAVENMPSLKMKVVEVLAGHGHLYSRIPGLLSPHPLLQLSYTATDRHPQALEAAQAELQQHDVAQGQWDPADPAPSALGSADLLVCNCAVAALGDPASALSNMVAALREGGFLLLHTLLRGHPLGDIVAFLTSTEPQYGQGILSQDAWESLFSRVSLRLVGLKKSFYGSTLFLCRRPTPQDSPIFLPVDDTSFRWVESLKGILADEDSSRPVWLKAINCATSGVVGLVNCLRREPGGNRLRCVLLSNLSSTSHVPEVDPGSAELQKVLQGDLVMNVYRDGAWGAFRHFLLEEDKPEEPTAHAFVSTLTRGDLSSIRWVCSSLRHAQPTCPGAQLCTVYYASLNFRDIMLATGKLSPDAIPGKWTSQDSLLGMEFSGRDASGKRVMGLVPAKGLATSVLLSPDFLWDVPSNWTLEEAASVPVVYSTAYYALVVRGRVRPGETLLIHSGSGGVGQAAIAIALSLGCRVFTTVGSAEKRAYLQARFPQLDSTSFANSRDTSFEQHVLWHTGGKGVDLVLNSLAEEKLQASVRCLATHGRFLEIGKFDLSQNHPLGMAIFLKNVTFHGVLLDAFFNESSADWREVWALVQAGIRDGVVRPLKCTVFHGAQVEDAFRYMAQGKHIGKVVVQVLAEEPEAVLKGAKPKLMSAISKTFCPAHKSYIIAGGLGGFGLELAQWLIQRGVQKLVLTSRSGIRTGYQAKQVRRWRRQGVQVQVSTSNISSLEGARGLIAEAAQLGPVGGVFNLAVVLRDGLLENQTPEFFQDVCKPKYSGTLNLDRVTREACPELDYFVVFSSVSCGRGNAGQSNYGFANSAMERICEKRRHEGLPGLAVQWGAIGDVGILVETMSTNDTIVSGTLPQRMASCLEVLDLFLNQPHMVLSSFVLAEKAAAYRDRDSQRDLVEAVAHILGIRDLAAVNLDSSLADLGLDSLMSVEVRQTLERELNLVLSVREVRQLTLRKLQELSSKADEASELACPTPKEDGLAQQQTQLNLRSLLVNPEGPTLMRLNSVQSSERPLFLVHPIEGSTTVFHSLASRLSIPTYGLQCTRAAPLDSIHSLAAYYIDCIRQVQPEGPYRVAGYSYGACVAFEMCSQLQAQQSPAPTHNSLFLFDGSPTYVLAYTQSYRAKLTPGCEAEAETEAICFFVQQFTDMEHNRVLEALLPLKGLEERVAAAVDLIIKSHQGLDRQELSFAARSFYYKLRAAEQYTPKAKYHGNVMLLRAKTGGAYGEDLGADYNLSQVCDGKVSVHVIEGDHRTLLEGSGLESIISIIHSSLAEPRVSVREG
Description: After 20 minutes incubation at room temperature the plate was measured again (T2).
The decrease in absorbance was calculated as (Absorbance before incubation T1)−(Absorbance following incubation T2).
A plot of Controlmin versus test compound concentration was fitted to a 4-parameter logistic curve using a non-linear least squares regression method.
For experiment [4], the target named is T1, hFASN enzyme (full length) (Homo sapiens, UniProt P49327).
T1 construct: 10 μL hFASN enzyme (full length, 300 ng, purified in house); made in house
T1 sequence (P49327 whole entry): as the sequence (P49327 whole entry, the tested form may be a part) above
The experiment can be described thus: Fatty Acid Synthase (FASN) inhibition scintillation proximity assay. The format is biochemical. Conditions: for inhibition at 10 µM: read-out: Human FASN % inhibition @ 10 μM, 10 μM test compound; for IC50: read-out: Human FASN pIC50 (converted). The method in brief:
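Scintillation proximity format: in-house full-length enzyme, 300 ng per well, pH 7.5 phosphate/DTT buffer, ³H-acetyl-CoA and malonyl-CoA. Emission counted on LEADseeker at 610 nm at least 24 h after stopping.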

For the molecule `O=C(C1CC1)N1CC(CN2C(=O)C3(CC3)N=C2c2ccc(-c3ccc(-c4cccnc4)cc3)cc2)C1` [compound 60, 6-{[1-(Cyclopropylcarbonyl)azetidin-3-yl]methyl}-5-(4′-pyridin-3-ylbiphenyl-4-yl)-4,6-diazaspiro[2.4]hept-4-en-7-one], the IC50 is 0.263 µM with A2780 ovarian cells [1], above 10 µM with A2780 ovarian cells [2], 0.288 µM in experiment [3] and 0.0933 µM in experiment [4]. The inhibition (as a rule, the change of the read-out against control, counted positive when it falls) at 10 µM in experiment [4] was determined as 99.4%.
Consider `O=C(C1CC1)N1CC[C@@H](CN2C(=O)C3(CCN(Cc4ccccc4)CC3)N=C2c2ccc(-c3ccc4[nH]ccc4c3)cc2)C1` [compound 63, (R)-2-(4-(1H-Indol-5-yl)phenyl)-8-benzyl-3-((1-(cyclopropanecarbonyl)pyrrolidin-3-yl)methyl)-1,3,8-triazaspiro[4.5]dec-1-en-4-one], for which the IC50 with A2780 ovarian cells [1] is 0.0759 µM; with A2780 ovarian cells [2] it was above 10 µM; in experiment [3] it was 0.0851 µM; in experiment [4] it was 0.0741 µM. Also, the inhibition at 10 µM in experiment [4] came to 115%.
`O=C(C1CC1)N1CC[C@@H](CN2C(=O)C3(CCCC3)N=C2c2ccc(-c3cccc4ncccc34)cc2)C1` [compound 66, 3-{[(3R)-1-(Cyclopropylcarbonyl)pyrrolidin-3-yl]methyl}-2-(4-quinolin-5-ylphenyl)-1,3-diazaspiro[4.4]non-1-en-4-one]: the IC50 is 1.1 µM in the experiment on A2780 ovarian cells [1], above 10 µM in the experiment on A2780 ovarian cells [2], 0.282 µM in experiment [3] and 0.0741 µM in experiment [4]. In addition, in experiment [4], the inhibition at 10 µM amounted to 106%.
The like results for `O=C(C1CC1)N1CC[C@@H](CN2C(=O)C3(CCCC3)N=C2c2ccc(-c3cccc4cnccc34)cc2)C1` [compound 67, 3-{[(3R)-1-(Cyclopropylcarbonyl)pyrrolidin-3-yl]methyl}-2-(4-isoquinolin-5-ylphenyl)-1,3-diazaspiro[4.4]non-1-en-4-one] were, in that order, 1.62 µM, above 10 µM, 1.55 µM, 0.282 µM and 100%.
As to `O=C(C1CC1)N1CC[C@@H](CN2C(=O)C3(CCCC3)N=C2c2ccc(-c3cccc4[nH]ccc34)cc2)C1` [compound 68, 3-{[(3R)-1-(Cyclopropylcarbonyl)pyrrolidin-3-yl]methyl}-2-[4-(1H-indol-4-yl)phenyl]-1,3-diazaspiro[4.4]non-1-en-4-one], the IC50 with A2780 ovarian cells [1] was 0.339 µM; in the experiment with A2780 ovarian cells [2] it was above 10 µM; in experiment [3] it was 0.162 µM; in experiment [4], 0.0631 µM. The inhibition at 10 µM in experiment [4] is 107%.
On to `O=C(C1CC1)N1CC[C@@H](CN2C(=O)C3(CCCC3)N=C2c2ccc(-c3ccc4ccncc4c3)cc2)C1` [compound 69, 3-{[(3R)-1-(Cyclopropylcarbonyl)pyrrolidin-3-yl]methyl}-2-(4-isoquinolin-7-ylphenyl)-1,3-diazaspiro[4.4]non-1-en-4-one], for which the IC50 with A2780 ovarian cells [1] is 1.15 µM; with A2780 ovarian cells [2], above 10 µM; in experiment [3], 0.851 µM; in experiment [4], 0.224 µM. The inhibition at 10 µM in experiment [4] stood at 100%.
With `O=C(C1CC1)N1CC[C@@H](CN2C(=O)C3(CCCC3)N=C2c2ccc(-c3cccc(-c4cc[nH]n4)c3)cc2)C1` [compound 70, 3-{[(3R)-1-(Cyclopropylcarbonyl)pyrrrolidin-3-yl]methyl}-2-[3′-(1H-pyrazol-3-yl)biphenyl-4-yl]-1,3-diazaspiro[4.4]non-1-en-4-one], the IC50 in the experiment with A2780 ovarian cells [1] is around 2.4 µM; in the experiment with A2780 ovarian cells [2], above 10 µM; in experiment [3], 1.35 µM; in experiment [4] it was 0.537 µM. For the same molecule, the inhibition at 10 µM in experiment [4] was 92.5%.
The like results for `Cc1cc(-c2ccc3occc3c2)ccc1C1=NC2(CCCC2)C(=O)N1C[C@@H]1CCN(C(=O)C2CC2)C1` [compound 72, 2-[4-(1-Benzofuran-5-yl)-2-methylphenyl]-3-{[(3R)-1-(cyclopropylcarbonyl)pyrrolidin-3-yl]methyl}-1,3-diazaspiro[4.4]non-1-en-4-one] were, in that order, 1.38 µM, above 10 µM, 0.174 µM, 0.0479 µM and 106%.
With `Cc1cc(-c2ccc3[nH]ccc3c2)ccc1C1=NC2(CCCC2)C(=O)N1C[C@@H]1CCN(C(=O)C2CC2)C1` [compound 73, 3-{[(3R)-1-(Cyclopropylcarbonyl)pyrrolidin-3-yl]methyl}-2-[4-(1H-indol-5-yl)-2-methylphenyl]-1,3-diazaspiro[4.4]non-1-en-4-one], the IC50 in the experiment on A2780 ovarian cells [1] was around 0.0288 µM; in the experiment with A2780 ovarian cells [2], above 10 µM; in experiment [3], 0.0646 µM; in experiment [4], 0.0331 µM. In experiment [4], the inhibition at 10 µM came out at 111%.
`Cc1cc(-c2ccc3cnccc3c2)ccc1C1=NC2(CCCC2)C(=O)N1C[C@@H]1CCN(C(=O)C2CC2)C1` [compound 74, 3-{[(3R)-1-(cyclopropylcarbonyl)pyrrolidin-3-yl]methyl}-2-(4-isoquinolin-6-yl-2-methylphenyl)-1,3-diazaspiro[4.4]non-1-en-4-one]: the IC50 was 0.00871 µM with A2780 ovarian cells [1], above 10 µM with A2780 ovarian cells [2], 0.0603 µM in experiment [3] and 0.0224 µM in experiment [4]. The inhibition at 10 µM in experiment [4] worked out at 114%.
For the molecule `O=C(C1CC1)N1CCC(CN2C(=O)C3(CCCC3)N=C2c2ccc(-c3ccc4occc4c3)cc2)CC1` [compound 75, 1-[4-(1-Benzofuran-5-yl)phenyl]-3-{[1-(cyclopropylcarbonyl)piperidin-4-yl]methyl}-1,3-diazaspiro[4.4]non-1-en-4-one], the IC50 is 5.89 µM in the experiment with A2780 ovarian cells [1], above 10 µM with A2780 ovarian cells [2], 2.14 µM in experiment [3] and 0.513 µM in experiment [4]. Besides, in experiment [4], the inhibition at 10 µM came to 92.7%.
In the case of `O=C(C1CC1)N1CCC(CN2C(=O)C3(CCCC3)N=C2c2ccc(-c3ccc4[nH]ccc4c3)cc2)CC1` [compound 76, 3-{[1-(Cyclopropylcarbonyl)piperidin-4-yl]methyl}-2-[4-(1H-indol-5-yl)phenyl]-1,3-diazaspiro[4.4]non-1-en-4-one], the IC50 in the experiment with A2780 ovarian cells [1] is 0.513 µM; with A2780 ovarian cells [2], above 10 µM; in experiment [3], 0.794 µM; in experiment [4] it was 0.129 µM. The inhibition at 10 µM in experiment [4] worked out at 99.2%.
In the case of `O=C(C1CC1)N1CCC(CN2C(=O)C3(CCCC3)N=C2c2ccc(-c3ccc4cnccc4c3)cc2)CC1` [compound 77, 3-{[1-(Cyclopropylcarbonyl)piperidin-4-yl]methyl}-2-(4-isoquinolin-6-ylphenyl)-1,3-diazaspiro[4.4]non-1-en-4-one], the IC50 with A2780 ovarian cells [1] is 0.661 µM; with A2780 ovarian cells [2], above 10 µM; in experiment [3], 0.871 µM; in experiment [4], 0.174 µM. In addition, the inhibition at 10 µM in experiment [4] came out at 103%.
On to `O=C(C1CC1)N1CC(CN2C(=O)C3(CCCC3)N=C2c2ccc(-c3ccc4cnccc4c3)cc2)C1` [compound 79, 3-{[1-(Cyclopropylcarbonyl)azetidin-3-yl]methyl}-2-(4-isoquinolin-6-ylphenyl)-1,3-diazaspiro[4.4]non-1-en-4-one], for which the IC50 in the experiment on A2780 ovarian cells [1] was 0.145 µM; in the experiment with A2780 ovarian cells [2], above 10 µM; in experiment [3], 0.324 µM; in experiment [4], 0.0617 µM. Also, the inhibition at 10 µM in experiment [4] turned out to be 108%.
In the case of `O=C(C1CC1)N1CC(CN2C(=O)C3(CCCC3)N=C2c2ccc(-c3ccc4occc4c3)cc2)C1` [compound 80, 2-[4-(1-Benzofuran-5-yl)phenyl]-3-{[1-(cyclopropylcarbonyl)azetidin-3-yl]methyl}-1,3-diazaspiro[4.4]non-1-en-4-one], the IC50 was 2.29 µM in the experiment on A2780 ovarian cells [1], above 10 µM with A2780 ovarian cells [2], 1.48 µM in experiment [3] and 0.437 µM in experiment [4]. The inhibition at 10 µM in experiment [4] worked out at 92.1%.
`CN1CCC2(CC1)N=C(c1ccc(-c3ccc4[nH]ccc4c3)cc1)N(C[C@@H]1CCN(C(=O)C3CC3)C1)C2=O` [compound 81, (R)-2-(4-(1H-Indol-5-yl)phenyl)-3-((1-(cyclopropanecarbonyl)pyrrolidin-3-yl)methyl)-8-methy-1,3,8-triazaspiro[4.5]dec-1-en-4-one]: the IC50 in the experiment on A2780 ovarian cells [1] is 0.102 µM; in the experiment on A2780 ovarian cells [2], above 6.17 µM; in experiment [3] it was 0.186 µM; in experiment [4], 0.0912 µM. Further, in experiment [4], the inhibition at 10 µM came out at 109%.
For the molecule `O=C(C1CC1)N1CC[C@@H](CN2C(=O)C3(CCCC3)N=C2c2ccc(-c3ccc(Cl)cc3)cc2)C1` [compound 82], the IC50 in the experiment on A2780 ovarian cells [1] is 3.72 µM; in the experiment on A2780 ovarian cells [2], above 10 µM; in experiment [3], 1.2 µM; in experiment [4], 0.214 µM. For the same molecule, the inhibition at 10 µM in experiment [4] was 105%.
With `COc1ccc(-c2ccc(C3=NC4(CCCC4)C(=O)N3C[C@@H]3CCN(C(=O)C4CC4)C3)cc2)cc1` [compound 85, 3-{[(3R)-1-(Cyclopropylcarbonyl)pyrrolidin-3-yl]methyl}-2-(4′-methoxybiphenyl-4-yl)-1,3-diazaspiro[4.4]non-1-en-4-one], the IC50 in the experiment with A2780 ovarian cells [1] is around 2.88 µM; with A2780 ovarian cells [2], above 10 µM; in experiment [3] it was 2.04 µM; in experiment [4] it was 0.355 µM. In addition, the inhibition at 10 µM in experiment [4] came to 97.9%.
